Assay results as given in the supplement of paper PMC11061612.

How the values were obtained:
Assay in all cases: Bliss excess, mean over the matrix (fraction); higher = more synergy
[1] = test system: NCI-H3118 (Head and Neck Carcinoma)
Summary of the method: (§1)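 Bliss excess equals the observed combination effect minus the expected value EA + EB − EA·EB, where EA and EB are the effects of each agent alone. Combination Emax is the second-highest inhibition within the matrix. Inhibition was scaled from CellTiter-Glo 2.0 luminescence, with 0 set by vehicle wells and 1 by blank wells, after 72 hours of two-drug dosing of cells plated in 1536-well plates.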

[2] = test system: MDA-MB-415 (Breast Carcinoma)
Summary of the method: as §1

[3] = test system: MS-1 (Small Cell Lung Carcinoma)
Summary of the method: as §1

[4] = test system: HPAF-II (Pancreatic Carcinoma)
Summary of the method: as §1

[5] = test system: C-33-A (Cervical Carcinoma)
Summary of the method: as §1

ES6 (Ewing's Sarcoma) = test system: ES6 (Ewing's Sarcoma)
Summary of the method: as §1

[6] = test system: SCC-4 (Oral Cavity Carcinoma)
Summary of the method: as §1

[7] = test system: IA-LM (Non-Small Cell Lung Carcinoma)
Summary of the method: as §1

SK-N-SH (Neuroblastoma) = test system: SK-N-SH (Neuroblastoma)
Summary of the method: as §1

[8] = test system: MONO-MAC-6 (Acute Myeloid Leukemia)
Summary of the method: as §1

[9] = test system: T84 (Colorectal Carcinoma)
Summary of the method: as §1

[10] = test system: ZR-75-30 (Breast Carcinoma)
Summary of the method: as §1

[11] = test system: CPC-N (Small Cell Lung Carcinoma)
Summary of the method: as §1

[12] = test system: LS-1034 (Colorectal Carcinoma)
Summary of the method: as §1

GAK (Melanoma) = test system: GAK (Melanoma)
Summary of the method: as §1

[13] = test system: SKG-IIIa (Cervical Carcinoma)
Summary of the method: as §1

[14] = test system: LCLC-103H (Non-Small Cell Lung Carcinoma)
Summary of the method: as §1

NCI-H226 (Mesothelioma) = test system: NCI-H226 (Mesothelioma)
Summary of the method: as §1

[15] = test system: RCC-JW (Kidney Carcinoma)
Summary of the method: as §1

IST-MEL1 (Melanoma) = test system: IST-MEL1 (Melanoma)
Summary of the method: as §1

Row | SMILES | Bliss excess [1] | Bliss excess [2] | Bliss excess [3] | Bliss excess [4] | Bliss excess [5] | Bliss excess (ES6 (Ewing's Sarcoma)) | Bliss excess [6] | Bliss excess [7] | Bliss excess (SK-N-SH (Neuroblastoma)) | Bliss excess [8] | Bliss excess [9] | Bliss excess [10] | Bliss excess [11] | Bliss excess [12] | Bliss excess (GAK (Melanoma)) | Bliss excess [13] | Bliss excess [14] | Bliss excess (NCI-H226 (Mesothelioma)) | Bliss excess [15] | Bliss excess (IST-MEL1 (Melanoma))
1 | C[C@@H]1COCCN1c1cc(C2([S@](C)(=N)=O)CC2)nc(-c2ccnc3[nH]ccc23)n1 [AZD6738] + C1CC(C1)(C(=O)[O-])C(=O)[O-].N.N.[Pt+2] [Carboplatin] (first compound max 10 µM, 7x7, partner max 10 µM) | -0.0423 | 0.0134 | -0.093 | -0.0585 | -0.0043 | -0.0116 | 0 | -0.047 | -0.028 | -0.0075 | -0.0041 | -0.0119 | -0.0391 | -0.0575 | -0.0442 | -0.0079 | -0.0447 | -0.0383 | 0.0051 | -0.0271
2 | Cc1c2c(nn1C)CSCc1cc(n(C)n1)CSc1cc(c3ccccc3c1)OCCCc1c(C(=O)O)n(C)c3c-2c(Cl)ccc13 [AZD5991] + CC(=O)O[C@H]1C(=O)[C@@]2(C)[C@H]([C@H](OC(=O)c3ccccc3)[C@]3(O)C[C@H](OC(=O)[C@H](O)[C@@H](NC(=O)c4ccccc4)c4ccccc4)C(C)=C1C3(C)C)[C@]1(OC(C)=O)CO[C@@H]1C[C@@H]2O [Paclitaxel] (first compound max 1 µM, 7x7, partner max 3 µM) | 0.0079 | 0.0268 | -0.0135 | 0.0356 | -0.0095 | 0.005 | -0.0628 | -0.0452 | -0.0507 | 0.0152 | -0.0379 | 0.0617 | -0.0539 | -0.0473 | 0.0893 | -0.036 | -0.0118 | -0.008 | -0.0029 | -0.0215
3 | O=C(c1cc(Cc2n[nH]c(=O)c3ccccc23)ccc1F)N1CCN(C(=O)C2CC2)CC1 [Olaparib] + COc1nnc2ccc(N3CCC(c4ccc(OCCN5CCN(C)C(=O)[C@H]5C)cc4)CC3)nn12 [AZD5153] (first compound max 10 µM, 7x7, partner max 1 µM) | -0.0669 | -0.0222 | -0.0426 | 0.0018 | -0.0461 | -0.0941 | -0.0472 | -0.153 | -0.0402 | -0.0333 | -0.0698 | -0.0502 | -0.0557 | -0.0339 | -0.0642 | -0.0383 | -0.0369 | -0.0749 | -0.143 | -0.045
4 | C[C@@H](Oc1cc(-c2cnn(C3CCNCC3)c2)cnc1N)c1c(Cl)ccc(F)c1Cl [Crizotinib] + CC1=C(C(=CC=C1)Cl)NC(=O)C2=CN=C(S2)NC3=CC(=NC(=N3)C)N4CCN(CC4)CCO [Dasatinib] (first compound max 10 µM, 7x7, partner max 2 µM) | 0.0187 | -0.0332 | -0.118 | 0.0578 | -0.02 | -0.0119 | 0.0487 | -0.0154 | 0.0049 | 0.014 | 0.0051 | -0.0431 | -0.0989 | -0.0512 | -0.0786 | 0.0166 | 0.01 | -0.0295 | -0.065 | 0.0781
5 | N#Cc1cnc(Nc2cc(NC[C@H]3CNCCO3)c(C(F)(F)F)cn2)cn1 [SRA737] + C=CCn1c(=O)c2cnc(Nc3ccc(N4CCN(C)CC4)cc3)nc2n1-c1cccc(C(C)(C)O)n1 [AZD1775] (first compound max 10 µM, partner max 1 µM) | 0.0583 | 0.0133 | 0.078 | 0.0176 | 0.0919 | 0.0022 | 0.0374 | 0.0224 | 0.0281 | 0.0824 | 0.0022 | -0.0093 | 0.0589 | 0.142 | 0.0525 | -0.031 | 0.0146 | -0.0457 | -0.002 | 0.046
6 | C[C@@H](Nc1cc(F)cc(F)c1)c1cc(C(=O)N(C)C)cc2c(=O)cc(N3CCOCC3)oc12 [AZD8186] + C1CN(CCC1(C(=O)N[C@@H](CCO)C2=CC=C(C=C2)Cl)N)C3=NC=NC4=C3C=CN4 [AZD5363] (first compound max 10 µM, 7x7, partner max 10 µM) | -0.022 | -0.0251 | -0.0446 | 0.0403 | -0.0501 | -0.0213 | -0.0276 | 0.001 | -0.0269 | 0.0692 | -0.0085 | -0.0104 | -0.0478 | -0.0177 | -0.0303 | -0.0225 | -0.0345 | -0.0272 | 0.0563 | -0.013
7 | CS(=O)(=O)CCNCc1ccc(-c2ccc3ncnc(Nc4ccc(OCc5cccc(F)c5)c(Cl)c4)c3c2)o1 [Lapatinib] + Cn1cnc2c(F)c(Nc3ccc(Br)cc3Cl)c(C(=O)NOCCO)cc21 [Selumetinib] (first compound max 10 µM, 7x7, partner max 10 µM) | 0.0206 | -0.0575 | -0.0277 | 0.109 | 0.0282 | -0.0159 | 0.0318 | -0.0659 | -0.0123 | 0.0017 | 0.058 | -0.0329 | -0.0085 | -0.0089 | -0.0769 | 0.001 | -0.0744 | -0.0542 | -0.0525 | 0.0279
8 | Cc1c2c(nn1C)CSCc1cc(n(C)n1)CSc1cc(c3ccccc3c1)OCCCc1c(C(=O)O)n(C)c3c-2c(Cl)ccc13 [AZD5991] + CS(=O)(=O)CCNCc1ccc(-c2ccc3ncnc(Nc4ccc(OCc5cccc(F)c5)c(Cl)c4)c3c2)o1 [Lapatinib] (first compound max 1 µM, 7x7, partner max 10 µM) | 0.0426 | 0.0015 | -0.0273 | -0.0209 | 0.0485 | 0.0331 | 0.0449 | -0.0292 | 0.0615 | 0.0012 | 0.0239 | 0.063 | -0.0429 | -0.0332 | 0.015 | 0.0014 | -0.025 | -0.0183 | -0.0401 | -0.005
9 | C[C@@H](Oc1cc(-c2cnn(C3CCNCC3)c2)cnc1N)c1c(Cl)ccc(F)c1Cl [Crizotinib] + Cn1cnc2c(F)c(Nc3ccc(Br)cc3Cl)c(C(=O)NOCCO)cc21 [Selumetinib] (first compound max 10 µM, 7x7, partner max 10 µM) | -0.0222 | -0.0114 | -0.0926 | 0.0008 | -0.0274 | -0.0552 | -0.0514 | -0.0463 | -0.0546 | 0.023 | -0.0143 | -0.0416 | -0.0663 | -0.0843 | -0.0473 | -0.0048 | -0.0221 | -0.0387 | -0.0432 | 0.0273
10 | CN(CCO)CC[C@H](CSc1ccccc1)Nc1ccc(S(=O)(=O)NC(=O)c2ccc(N3CCC([C@@H](O)c4ccccc4-c4ccc(Cl)cc4)CC3)cc2)cc1S(=O)(=O)C(F)(F)F [AZD4320] + Nc1ccn([C@@H]2O[C@H](CO)[C@@H](O)C2(F)F)c(=O)n1 [Gemcitabine] (first compound max 1 µM, 7x7, partner max 0.3 µM) | -0.0638 | 0.0347 | -0.0023 | -0.0087 | 0.0113 | 0.0253 | 0.0027 | 0.0296 | 0.0106 | -0.0237 | -0.0434 | -0.0052 | 0.0415 | -0.0357 | 0.0955 | 0.0259 | -0.0122 | -0.0209 | -0.0025 | 0.134
11 | CN(CCO)CC[C@H](CSc1ccccc1)Nc1ccc(S(=O)(=O)NC(=O)c2ccc(N3CCC([C@@H](O)c4ccccc4-c4ccc(Cl)cc4)CC3)cc2)cc1S(=O)(=O)C(F)(F)F [AZD4320] + CS(=O)(=O)CCNCc1ccc(-c2ccc3ncnc(Nc4ccc(OCc5cccc(F)c5)c(Cl)c4)c3c2)o1 [Lapatinib] (first compound max 1 µM, 7x7, partner max 10 µM) | 0.0041 | 0.0355 | 0.068 | 0.031 | 0.0074 | -0.0017 | 0.0692 | -0.0137 | 0.112 | 0.103 | -0.0061 | 0.0458 | 0.052 | 0.0441 | 0.0059 | -0.0081 | -0.0224 | -0.0437 | -0.0443 | -0.0011
12 | Cc1c2c(nn1C)CSCc1cc(n(C)n1)CSc1cc(c3ccccc3c1)OCCCc1c(C(=O)O)n(C)c3c-2c(Cl)ccc13 [AZD5991] + Nc1ccn([C@@H]2O[C@H](CO)[C@@H](O)C2(F)F)c(=O)n1 [Gemcitabine] (first compound max 1 µM, 7x7, partner max 0.3 µM) | -0.0107 | -0.0407 | -0.0371 | -0.0059 | 0.0332 | -0.002 | -0.0333 | -0.0384 | -0.0198 | -0.0133 | -0.0187 | 0.0283 | -0.0387 | -0.0473 | 0.01 | -0.0271 | -0.0722 | -0.024 | 0.0274 | -0.0045
13 | CS(=O)(=O)CCNCc1ccc(-c2ccc3ncnc(Nc4ccc(OCc5cccc(F)c5)c(Cl)c4)c3c2)o1 [Lapatinib] + NC1(c2ccc(-c3nc4ccn5c(=O)[nH]nc5c4cc3-c3ccccc3)cc2)CCC1 [MK-2206] (first compound max 10 µM, 7x7, partner max 10 µM) | 0.0618 | 0.0306 | 0.0368 | 0.0089 | 0.0295 | -0.0408 | 0.0365 | -0.0179 | -0.0194 | 0.0302 | 0.0453 | -0.0604 | -0.0202 | 0.0301 | 0.0347 | 0.0359 | -0.0428 | -0.0287 | -0.0285 | 0.0095
